Assay [1] deals with MDA-MB-468 cells (His-273 p53 mutation). As to the kind of experiment: Transactivation test (pLUC-BAX, pLUC-p21) in Adriamycin treated MDA-MB-468 cells. The format is cell-based, human. As to conditions: MDA-MB-468, 3 μM Adriamycin 24 hours post-transfection, luciferase reporter. As to the method:
MDA-MB-468 cells have been transfected using a mixture containing lipofectamine, pLUC-BAX plasmid, β-galactosidase expression vector, SIMP1 and SIMP control peptides. The cells, 24 hours post-transfection, have been treated with 3 μM Adriamycin.
MDA-MB-468 cells have been transfected using a mixture containing lipofectamine, pLUC-BAX plasmid, pLUC-p21, β-galactosidase expression vector, SIMP1 peptides and SIMP1M and SIMP1KO derived mutant thereof. The cells, 24 hours post-transfection, have been treated with 3 μM Adriamicyn and then processed.
SKBR3, HT-29, MDA-MB-468 cell lines have been transfected with Lipofectamine 2000 according to the supplier instructions (InVitrogen).
Cells (1.5×10^5) have been transiently transfected using SIMP peptides, expression plasmids and reporter constructs as internal controls for transfection efficiency. After the transfection, SKBR3, HT-29 and MDA-MB-468 have been incubated with 3 μM ADR over 24 hours. Cells have been washed with cold PBS and re-suspended in lysis buffer (Promega) and incubated for 10 min at room temp. Insoluble material has been centrifuged and luciferase activity has been determined using a commercial kit with a luminometer (Turner).
In general terms: In a reporter assay the amount or activity of a reporter protein is the signal.

The next assay relates to MDA-MB-468 cells. As to the kind of experiment: Apoptotic tests (PARP and BAX expression, Western blot) after Adriamycin. The format is cell-based, human. The following applies: MDA-MB-468, 3 μM Adriamycin. As to the method:
(§1) (A) MDA-MB-468 (5×10^5) cells have been transfected using a lipofectamine containing mixture, βgal expression vector, which normalizes transfection efficiency, and SIMPI peptide (20 μM). Total cellular lysates (1 mg), have been immunoprecipitated with antibodies directed against p73 and immunoglobulins (IgG). Immunoprecipitates and an aliquot (50 μg) of total lysate after 12% acrylamide gel electrophoretic run have been transferred on nitrocellulose membrane and labelled with antibodies shown in the figure. (B) MDA-MB-468 cells, have been transfected using SIMP1 and SIMP5,6. peptides. Successively, cells have been washed and stimulated with 3 μM Adriamycin. Total obtained lysates (30 μg) have been assayed for the expression of PARP and BAX apoptotic proteins. Lysate has been normalized by assaying γ-tubulin expression. (C-D). Transactivation tests have been carried out by transient transfection of H1299 cells using a mixture containing lipofectamine, SIMP1, SIMP5,6 indicated plasmids (20 μM each) together with pLUC-BAX reporter vector. To each reaction mixture an equal amount of […] expression vector was added, in order to normalize the transfection efficiency.
50 μg of solubilised proteins have been separated by electrophoresis on 10 or 15% SDS-polyacrylamide gel. Western blot analysis has been carried out using anti-p53 primary antibodies (DO1 Calbiochem), rabbit anti-PARP, rabbit polyclonal anti-Bax, anti-p21 and anti-tubulin monoclonal antibodies (Calbiochem). Goat anti-mouse and goat anti-rabbit horse peroxidase conjugated secondary antibodies (Amersham) have been used for the expression analyses. Immunolabelled lanes have been detected using chemiluminescence analysis (Pierce).
To this end cell viability and apoptotic tests (FIG. 1B, FIG. 4 B-C) on MDA-MB468 breast carcinoma have been carried out.
(In general: A western blot detects proteins with antibodies after separation by electrophoresis.)

The target in another assay is GST-p53 His175 (Homo sapiens, UniProt P04637, R175H). As to the kind of experiment: Dot immunobinding test with purified GST-p53 fusion proteins. The assay is classed as binding. As to conditions: 20 μg GST fusion purified proteins. As to the method: (§2) (A) Total extracts deriving from SKBR3, (His-175) HT29, (His-273) and H1299 (p53 free) tumour cells have been incubated (1 mg) on SIMP1 and SIMPIKO peptide labelled nitrocellulose membrane and Dot Blot analysed. In (B) the membranes have been incubated with 20 μg of wild type WT GST-p53 purified protein or GST-p53 His-175, GST-p53-His-175, 74-298 or GST alone. In both experiments dots have been detected by labelling the membranes with anti-p53 (DO1) antibody
(§3) Nitrocellulose membranes have been cut, washed with water and blotted on the paper filters. The peptides at 250 mM concentration have been transferred on membrane. Labelled membrane has been washed for 10 min. with TBST buffer (10 mM Tris-HCl pH 7.4, 150 mM NaCl, 0.05% (v/v) Tween-20) and then blocked for 45 min with TBST/5% milk. Then the membranes have been incubated for 6 hours at 4° C. in shaker with 1 mg of total protein extract or 20 μg of GST fusion purified proteins. Successively the membranes have been washed with TBST buffer and decorated with anti-p53 antibody (DO1) as a primary antibody. As secondary antibody horse peroxidase conjugated goat antibody has been used. Immunolabelled lanes have been detected using chemiluminescence analysis (Pierce).
(§4) The membranes decorated with SIMP peptides also have been incubated with GST-p53 His175, GST p53His74-298, GST WTp53 fusion proteins, GST control.

In assay [2] the test system is tumour cell lines containing His-175 or His-273 p53 mutation. As to the kind of experiment: Summary of activity by p53 mutation type. As to conditions: FIG. 6 summary. The format is cell-based. An excerpt:
SIMP1M: FQQSSTARSATW (SEQ ID NO:16) (MW: 1369, PI: 9.75) peptide is a mutated version of SIMP1 peptide wherein K138 residue has been replaced by Arginine.
FIG. 6 that SIMP peptides and by-products thereof displace protein complexes involving mutated protein p53 and p73.

The target in the next assay is T1, mutp53 His-273 protein (Homo sapiens, UniProt P04637, R273H).
T1 construct: Total extracts deriving from SKBR3, (His-175) HT29, (His-273) and H1299 (p53 free) tumour cells; endogenous in cells; host or cells: HT29 total cell extract
As to the kind of experiment: Dot immunobinding test with total cell extracts. The format is binding. The following applies: total extracts 1 mg, peptide on nitrocellulose membrane. The procedure: as §2, §3, §4

In a further assay the target is T2, m-p53His-273/p73 complex (Homo sapiens, UniProt P04637, R273H).
T2 construct: Total cellular lysates (1 mg), have been immunoprecipitated with antibodies directed against p73; endogenous in cells; host or cells: MDA-MB-468
As to the kind of experiment: Coprecipitation (immunoprecipitation) test of the m-p53/p73 complex in MDA-MB-468 cells. The format is cell-based. As to conditions: His-273 mutation, peptide 20 μM, anti-p73 immunoprecipitation. The procedure:
as §1
The cell extracts have been processed in a lysis buffer containing 50 mm Tris HCl pH 8, 100 mM NaCl, 10% glycerol, 1% Triton X-100, 1 mM EDTA, 100 mM NaF, MgCl2, 1 mM PMSF, protease and phosphatase inhibitors. Then extracts have been sonicated and centrifuged at 14.000 rpm for 10 min for the debris removal.
50 μg of solubilised proteins have been separated by electrophoresis on 10 or 15% SDS-polyacrylamide gel. Western blot analysis has been carried out using anti-p53 primary antibodies (DO1 Calbiochem), rabbit anti-PARP, rabbit polyclonal anti-Bax, anti-p21 and anti-tubulin monoclonal antibodies (Calbiochem). […] Immunolabelled lanes have been detected using chemiluminescence analysis (Pierce). […]
In order to evaluate the activity of SIMPI peptide and SIMP1KO and SIMP1M derivatives the ability in disrupting the oncogenic m-p53His-273/p73 complex has been analysed.

“Also recorded” adds a separate entry of the source.

With “FQQSSTAKSATW (p73 SIMP (aa 131-142)) [SIMP1]”, in assay [1], the “Adriamycin chemosensitivity / p73 transcription response” value is recorded as “increases the Adriamycin sensitivity; also recorded: increase Adriamycin chemosensitivty; also recorded: increased p73 transcription response as an adriamycin response”. The apoptotic response result with MDA-MB-468 cells is listed as “increase the apoptotic response to chemotherapeutic agents”; with MDA-MB-468 cells (listed as SIMPI) it was “increases the apoptotic response”. In the assay with GST-p53 His175, the “reaction with GST-p53 fusion proteins (dot blot, anti-p53 DO1)” value is “no reaction was observed”. Further, in assay [2], the “specificity for p53 mutation type” value is recorded as “display specificity for His-273 mutation containing tumours”. In addition, in the assay with mutp53 His-273 protein, the “direct binding to mutp53 His-273 (dot blot, anti-p53 DO1)” value is reported as “binds directly the mutp53 His-273 protein”. Besides, the “disruption of m-p53 His-273/p73 protein complex (p73 bound m-p53 amount)” value with m-p53His-273/p73 complex is given as “suitable to disrupt m-p53/p73 complexes in tumour cells containing his-273 mutation; also recorded: disrupt selectively m-p53/p73 complex”; with m-p53His-273/p73 complex (listed as SIMPI), “disrupts mutated p53/p73 protein complex; also recorded: largely reduced”.

Source of the values: patent US20120237614A1, “PEPTIDE ABLE TO DISRUPT THE PROTEIN COMPLEX BETWEEN THE HIS273 MUTADED P53 PROTEIN AND THE ONCOSUPPRESSIVE P73 PROTEIN IN TUMOR CELLS AND THERAPEUTIC USES THEREOF” (priority 2009, published 2012).
